Assay results published in article PMC3715890, “A Cyclic Peptide Inhibitor of HIF-1 Heterodimerization That Inhibits Hypoxia Signaling in Cancer Cells” (Journal of the American Chemical Society, 2013).
Entries after “also recorded” stand apart in the source; their conditions may differ.

Columns and labels:
MCF-7 cells = assay: CyQUANT cell proliferation assay, MCF-7; type: cell-based; conditions: 1 μM, positive control, 72 h
Method: Sulforhodamine B cytotoxicity assay […]
incubated in hypoxia for 24h.
O.D. value of the experimental set.
CyQUANT cell proliferation assay
The cells were incubated for 5 hours and then treated with Tamoxifen or P1. After 24, 48 or 72 hours, the media was […]
C35006) following the manufacturers instructions. Fluorescence measurements were […]
Workman, P.; Ashcroft, M. Cancer Res 2005, 65, 4918.

[1] = tested on: HIF-1α/HIF-1β protein–protein interaction; assay: HIF-1 bacterial reverse two-hybrid system (RTHS), SICLOPPS-expressed cyclic peptides, drop-spotting; type: cell-based; conditions: E. coli HIF-1 RTHS, cyclic peptide expressed from SICLOPPS plasmid, 10-fold serial dilutions, compared with the other potential inhibitors
Description: We used our genetically encoded high-throughput screening platform[23]−[25] to identify inhibitors of the HIF-1α/HIF-1β protein–protein interaction. We built and verified the function of a HIF-1 bacterial reverse two-hybrid system (RTHS, for a detailed description see the Supporting Information and Figures S1–S3). The HIF-1 RTHS was used to screen a plasmid-encoded SICLOPPS (split intein circular ligation of peptides and proteins)[26],[27] library of 3.2 million cyclic hexapeptides for HIF-1 dimerization inhibitors.
After the first round of screening, 120 surviving colonies were observed and subjected to several rounds of secondary screening to eliminate false positives and nonselective inhibitors, leaving 12 potential HIF-1 dimerization inhibitors that were ranked by drop-spotting.
The HIF-1 RTHS, associated control RTHS, and SICLOPPS library were constructed as detailed in the Supporting Information. Electrocompetent cells of the HIF-1 RTHS were prepared and transformed with the C+5 SICLOPPS plasmid library. Transformation efficiency, assessed by plating 10-fold serial dilutions of the recovery solution on LB agar supplemented with chloramphenicol (35 μg/mL), was consistently found to be ∼5 × 10^7, thus ensuring adequate coverage of the 3.2 × 10^6 member cyclic peptide library. Transformants were washed with minimal media and plated onto minimal media agar plates supplemented with ampicillin (50 μg/mL), spectinomycin (25 μg/mL), kanamycin (50 μg/mL), 3-AT (7.5 μM), IPTG (100 μM), L-arabinose (6.5 μM), and chloramphenicol (35 μg/mL). The plates were incubated for 2–3 days at 37 °C until individual colonies were visible. Colonies were picked and restreaked onto LB agar plates containing ampicillin (50 μg/mL), spectinomycin (25 μg/mL), and chloramphenicol (35 μg/mL) and incubated overnight at 37 °C.
Surviving colonies from these plates were grown overnight and assessed by drop-spotting 10-fold serial dilutions onto minimal media plates, supplemented with antibiotics, IPTG and 3-AT as above, with and without 6.5 μM L-arabinose. […]

bHLH domain of HIF-1α = assay: Fluorescent binding assay, bHLH; conditions: fluorescence at 680 nm, Ni2+-coated plate
PAS-A domain of HIF-1α = assay: Fluorescent binding assay, PAS-A; conditions: fluorescence at 680 nm, Ni2+-coated plate
His-HIF-1α1–350 = assay: Fluorescent binding assay, HIF-1α; conditions: fluorescence at 680 nm, Ni2+-coated plate, 5 µL of 100 µM solution in 95 µL buffer, 1 hour, room temperature
PAS-B domain of HIF-1α = target: T1, PAS-B domain of HIF-1α (Homo sapiens, UniProt Q16665); assay: Fluorescent binding assay, PAS-B; conditions: fluorescence at 680 nm, Ni2+-coated plate
T1 construct: Per-ARNT-Sim-B (PAS-B, amino acids 235–350) domains; His (N); made in house; host or cells: E. coli BL21(DE3)

His-HIF-2α1–351 = assay: Fluorescent binding assay, HIF-2α; conditions: fluorescence at 680 nm, Ni2+-coated plate, 5 µL of 100 µM solution in 95 µL buffer, 1 hour, room temperature
[2] = tested on: HIF-1 (HIF-dependent luciferase reporter, U2OS-HRE-luc cells); assay: HIF-1-dependent luciferase reporter assay, U2OS-HRE-luc; type: cell-based, human
Method: (§1) The ability of P1–P3 to disrupt HIF-1 function in cells was assessed using a HIF-1-dependent luciferase reporter assay.[15],[21] The assay uses human osteosarcoma U2OS cells, stably transfected with a HIF-dependent luciferase reporter construct (U2OS-HRE-luc), where activation of HIF results in an increase in luciferase expression.[15]
(§2) Endogenous HIF-1 luciferase reporter assays were conducted as previously reported in U2OS-HRE-luc[15] and MCF-7 cells.[46] For plasmid-expressed HIF-α luciferase reporter assays, MCF-7 and U2OS cells were transiently transfected with plasmids expressing HIF-1α, HIF-2α, or a blank control (pcDNA3.1-HIF-1α, pcDNA3.1-HIF-2α, or pcDNA3.1), a renilla-encoding control (phRL-TK), and a HIF-dependent firefly luciferase reporter construct (pGL2-TK-HRE), using Transfast (Promega) according to the manufacturer’s instructions. After 24 h, cells were recovered and plated (4000 cells/well) in 96-well plates (Perkin-Elmer) and incubated for 5 h before either hypoxic or aerobic incubation in presence or absence of cyclic peptide inhibitors. Firefly and renilla activities were determined using Dual-Glo Reagent (Promega) according to the manufacturer’s instructions. The luciferase signal was normalized using the corresponding renilla values.
Cells were treated with the stated concentrations of inhibitor (P1, P2, or P3) and incubated in normoxia for 4 h, followed by incubation in a hypoxic environment. All manipulation of cell pellets (e.g., lysis, mRNA, and protein extraction) was conducted in a hypoxic environment.

[3] = tested on: HIF-1 (HIF-dependent luciferase reporter, MCF-7 breast cancer cells); assay: HIF-1-dependent luciferase reporter assay, MCF-7; type: cell-based; conditions: MCF-7, 100 μM
Method: as §1
as §2, with “values. […]” for “values.”

[4] = tested on: HIF-2 (HIF-dependent luciferase reporter, MCF-7 cells); assay: HIF-2 luciferase reporter assay, MCF-7; type: cell-based; conditions: MCF-7, transfected HIF-2α
Description: (§3) In addition, P1 had no effect on VEGF protein levels in hypoxic 786-O cells (Figure 6B). To further probe the effect of P1 on HIF-2, a luciferase reporter assay was developed and used. The assay was derived from the HIF-1 luciferase reporter assay detailed above (Figure 2C and D) and adapted for HIF-2 by replacing the plasmid encoding HIF-1α with the equivalent plasmid encoding HIF-2α. […] P2 and P3 also had no effect on HIF-2 in this assay (Figure S9).
as §2

[5] = tested on: U2OS-luc control cell line stably expressing luciferase; assay: Control constitutive luciferase reporter, U2OS-luc; type: cell-based, human
Description: Figure S3: Identification of cyclic peptide HIF-1 inhibitors. (A) SICLOPPS expression is induced by arabinose, which processes to give a member of the cyclic peptide library. A dimerization inhibitor would be expected to rescue growth of the HIF-1 RTHS on selective media plates containing IPTG, kanamycin and 3-amino-triazole, and arabinose. (B) The ability of the selected cyclic peptides to […]
HIF-1 RTHS containing the corresponding SICLOPPS plasmid onto selective media. In the absence of arabinose the SICLOPPS split-intein is not produced; the HIF-1 RTHS containing plasmids encoding […]
colonies show survival on selective media plates containing IPTG and arabinose (panel 2). Expressing the 3 selected cyclic peptides from mutant SICLOPPS inteins (H24A, F26A mutations in the C- […]
cyclic form of the peptides and their activity. […]
expressing a constitutive luciferase reporter construct. […]

[6] = tested on: HIF-2 (HIF-dependent luciferase reporter, U2OS cells); assay: HIF-2 luciferase reporter assay, U2OS; type: cell-based, human; conditions: transfected HIF-2α
Description: as §3, §2

T1 sequence (Q16665 235-350): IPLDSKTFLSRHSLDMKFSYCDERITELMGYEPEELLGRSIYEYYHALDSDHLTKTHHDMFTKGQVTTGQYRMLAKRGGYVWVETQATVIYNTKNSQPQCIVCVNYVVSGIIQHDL

CC/C(=C(\c1ccc(O)cc1)c1ccc(OCCN(C)C)cc1)c1ccccc1 [4-hydroxytamoxifen, reference compound]
proliferation of MCF-7 cells (MCF-7 cells): inhibited proliferation; also recorded: arrests cell division

cyclo-CLLFVY (head to tail)
activity ranking by drop-spotting in HIF-1 RTHS [1]: significantly more active than the others

Megastokes dye 673-triazole-(cyclo-ALLFVY) (head to tail) [fluorescent derivative of cyclo-CLLFVY, propargylalanine derivative of cyclo-CLLFVY click-linked to azide-Megastoke dye 673]
binding to bHLH domain of HIF-1α (bHLH domain of HIF-1α): close to background level | binding to PAS-A domain of HIF-1α (PAS-A domain of HIF-1α): close to background level | binding to His-HIF-1α1–350 (His-HIF-1α1–350): observed binding | binding to PAS-B domain of HIF-1α (PAS-B domain of HIF-1α): binds the PAS-B domain of HIF-1α | binding to His-HIF-2α1–351 (His-HIF-2α1–351): close to background levels

CGRKKRRQRRRPPQ [Tat-tag, Tat-tag alone, control, reference compound]
effect on luciferase signal, Tat-tag alone ([2]; U2OS, 100 μM): did not affect the luciferase signal | effect on luciferase signal, Tat-tag alone [3]: did not affect the luciferase signal

cyclo-CLLRMY (head to tail)
activity ranking by drop-spotting in HIF-1 RTHS [1]: significantly more active than the others

Tat-cyclo-CLLRMY (head to tail) [P3, cyclo-CLLRMY tagged with Tat peptide via a disulfide bond]
effect on HIF-2 luciferase reporter signal [4]: do not affect | effect on constitutive luciferase signal [5]: do not affect | effect on HIF-2 luciferase reporter signal [6]: do not affect | effect on luciferase reporter in hypoxia ([2]; U2OS-HRE-luc, hypoxia (1% O2)): did not show an effect | effect on luciferase reporter in normoxia (basal) ([2]; U2OS-HRE-luc, normoxia): did not show an effect

cyclo-CRLMVL (head to tail)
activity ranking by drop-spotting in HIF-1 RTHS [1]: significantly more active than the others
